Measured values as given in publication PMC8778526, “N-Alkylmorpholines: Potent Dermal and Transdermal Skin Permeation Enhancers” (Pharmaceutics, 2021).
≈ marks a conversion by molar mass, not a printed value. Where two headings read alike, the source gives them in different places.

Tests used:
porcine skin [1] = experiment: ATR-FTIR of enhancer-treated skin; conditions: skin treated 24 h with 1% enhancer in 60% PG
Procedure: ATR-FTIR is a powerful method to investigate the interactions of enhancers with SC lipids and proteins. […] Pure distilled water or 60% aqueous PG were applied as controls. […] IR spectra of the skin surface were recorded by an IR spectrometer (Nicolet iZ10, Thermo Scientific, Waltham, MA, USA), equipped with a single reflection […] ZnSe crystal (PIKE Technologies, Madison, WI, USA) at constant clamping pressure. […] Collected spectra were normalised, to reduce potential variations in the overall intensity of the spectra. Selected regions (amide I, amide II and CH2 stretching vibration bands) were fitted in Origin Pro (OriginLab, Wellesley Hills, MA, USA). The position, height and area of these selected peaks were compared among the particular spectra and the variances between peak characteristics were statistically evaluated by GraphPad Prism® software (GraphPad Software, Inc., La Jolla, CA, USA).

[2] = cited from earlier work
[3] = In vitro permeation experiment, Franz-type diffusion cells; conditions: pig, pH 7.4
porcine skin [4] = experiment: as above; conditions: for Jss, steady-state flux of the model drug: control, pure vehicle 60% PG without enhancer; for ER, enhancement ratio: flux with/without 1% enhancer
[5] = cited from earlier work; remark: listed apart in the source
porcine skin [6] = experiment: Entrapment of model drug in the skin after the permeation experiment; format: in vitro ADME; conditions: control without enhancer
Procedure: At the end of the permeation experiment, the Franz diffusion cells were dismounted and the skin surface was thoroughly washed by distilled water and PBS. The skin area, which was exposed to the donor phase, was cut out, weighed and extracted by 5 mL of the respective mobile phase by shaking for 24 h at 32 °C on a laboratory shaker. The extracts were then filtered through 0.45 µm cellulose filters to eliminate skin residues and analysed by HPLC. Drug concentration in the skin, expressed as mg of model drugs per g of the skin tissue was calculated by dividing permeants’ amounts by the respective skin weights.

[7] = Effect of enhancers on drug solubility in the donor phase; conditions: 32 °C, aqueous with cosolvent or surfactant or cyclodextrin, thermodynamic from solid
[8] = test system: human keratinocytes HaCaT; experiment: Cytotoxicity, CCK-8 viability assay; format: cell-based; conditions: read-out: IC50, concentration causing 50% decrease in cell viability, 24 h incubation
Procedure: Cytotoxicity of the three best enhancers (Mo10, Mo12, Mo14) was evaluated on non-malignant spontaneously immortalised human keratinocytes HaCaT (Cell Lines Service, Eppelheim, Germany). The cell line was cultivated in Dulbecco’s Modified Eagle’s Medium (DMEM, Sigma Aldrich, St. Luis, MO, USA), supplemented with 10% Fetal Bovine Serum (Sigma Aldrich, St. Luis, MO, USA) in a Petri dish at 37 °C in a humidified atmosphere of 5% CO2. Cells were subcultured two times a week. For cytotoxicity experiments, 96-well plates were seeded with cells (at a density of 10,000 cells per well) in 100 μL of culture medium and incubated at 37 °C in a humidified atmosphere of 5% CO2 for 24 h.
The enhancers were dissolved in DMEM, left in an ultrasonic bath for 15 min and then kept at 37 °C overnight. On the next day, 10 μL of the particular enhancer solution was added to 100 μL of cell suspensions, to receive final enhancer concentrations in the range of 0.9–110 μM (concentrations determined according to our preliminary testing). The cells were incubated with tested compounds for 24 h. Then, the cell viability was determined, using the Cell Counting Kit-8 (CCK-8, Sigma Aldrich, St. Luis, MO, USA). The cells were incubated with 10 μL of the CCK-8 for 2 h. Thereafter, absorbance was measured at 450 nm, using the Infinite 200 PRO microplate reader (Tecan Austria GmbH, Austria). The mean optical density (absorbance) was used to calculate the percentage of cell viability as follows: percentage of cell viability=Atreatment−Ablank/Acontrol −Ablank×100 %, where A is the absorbance.

porcine skin [9] = experiment: Transepidermal water loss (TEWL) measurements, reversibility of enhancer effect; conditions: for TEWL after the 2 h treatment: 1% enhancer in 60% PG applied 2 h; for TEWL after the 24 h treatment: 1% enhancer in 60% PG applied 24 h; for TEWL after 20 h: after 2 h treatment and enhancer removal; for TEWL within 24 h after the enhancers' removal: after 24 h treatment; for reversibility of the effect on the skin barrier: short-term 2 h application
Procedure: The reversibility of the enhancers’ effects was studied by evaluation of the difference in the water loss through the intact and enhancer-treated skin. […] The TEWL measurements were carried out according to established protocols. The skin samples were mounted into Franz diffusion cells, with the acceptor compartments filled with PBS pH 7.4 and placed in a water bath at 32 °C to hydrate and equilibrate. At first, the base TEWL values of untreated skin samples were measured. Each of the Franz diffusion cells was removed from the water bath, dried completely with compressed air and inserted into a holder. Then the TEWL probe was placed 1.0 cm above the skin surface. The measuring time was on average 80–100 s. […] The cells were then incubated at 32 °C. The donor samples were removed after 2 h or 24 h and the skin surface was washed with 0.5 mL of PBS, gently blotted dry and thoroughly dried with compressed air. After the enhancer was removed, TEWL was measured at predetermined intervals over 42 or 50 h.

porcine skin [10] = experiment: Skin electrical impedance measurements; conditions: 1% enhancer, 48 h; control ratio set to 1
Procedure: For monitoring the skin integrity and characterisation of the permeation enhancers’ effect, the electrical impedance of each skin was measured, using an LCR 4080 multimeter (Voltcraft, Hirschau, Germany), set in parallel-equivalent mode with an alternating current frequency of 120 Hz. The measurements were carried out according to established protocols. The measurements were performed in the Franz diffusion cells. After the initial hydration and equilibration, the donor compartments were filled with 500 μL of PBS. One wire of the multimeter was placed in PBS in the acceptor, the other in the donor phase and the electrical impedance was determined. The next measurement was taken after the 48 h permeation experiment. When the donor samples ([…]) were removed, they were replaced with 500 μL PBS and the electrical impedance was re-measured. The electrical impedance ratio (EIR) was calculated for each cell as (2) EIR=EI1/EI2 where EI1 [kΩ] is electrical impedance before and EI2 [kΩ] after the 48 h treatment by the donor formulation.

[11] = ref Drugbank, ALOGPS; cited from earlier work
[12] = donor phase: 60% PG in distilled water without enhancer

CCCCCCCCCCCCN1CCCCCC1=O [Azone, N-dodecylazacykloheptan-2-on, reference compound]
vasCH2, position of asymmetric CH2 stretching vibration (porcine skin [1]): 2921.84 ± 0.34 cm⁻¹
vsCH2, position of symmetric CH2 stretching vibration (porcine skin [1]): 2851.16 ± 0.21 * cm^−1
IC50 ([2]; ref 57): 49 µM
IC50 ([2]; ref 58): 117 µM

CCCCCCCCCCCCOC(=O)CCCCCN(C)C [DDAK]
IC50 ([2]; ref 29): 76 µM

O=C(O)Cc1ccccc1Nc1c(Cl)cccc1Cl [DF, diclofenac sodium]
Papp at 48 h [3]: 0.0275 ×10⁻⁶ cm/s
Jss, steady-state flux of the model drug (porcine skin [4]): 5.74 ± 1.04 µg·cm^−2·h^−1
solubility in PBS ([5]; ref 27): 5150 µg/mL
amount of the model drug in the skin (porcine skin [6]): 380.10 ± 50.52 μg·gskin^−1
solubility at 48 h [7, 12]: 57800 ± 2550 µg/mL

COc1ccc2c(c1)c(CC(=O)O)c(C)n2C(=O)c1ccc(Cl)cc1 [IND, indomethacin]
Papp at 48 h [3]: 0.104 ×10⁻⁶ cm/s
Jss, steady-state flux of the model drug (porcine skin [4]): 0.51 ± 0.09 µg·cm^−2·h^−1
solubility in PBS ([5]; ref 26): 650 µg/mL (≈ 1.82 mM)
amount of the model drug in the skin (porcine skin [6]): 32.43 ± 6.98 μg·gskin^−1
solubility at 48 h [7, 12]: 950 ± 510 µg/mL

CCCCN1CC(CO)OC(OC)C1 (stereo not shown) [Mo4]
ER, enhancement ratio (porcine skin [4]; permeant DF): 1.04
ER, enhancement ratio (porcine skin [4]; permeant IND): 5.78
ER, enhancement ratio (porcine skin [4]; permeant TH): 1.38

CCCCCCCCN1CC(CO)OC(OC)C1 (stereo not shown) [Mo8]
ER, enhancement ratio (porcine skin [4]; permeant DF): 1.17
ER, enhancement ratio (porcine skin [4]; permeant IND): 6.28
ER, enhancement ratio (porcine skin [4]; permeant TH): 4.63

CCCCCCCCCCN1CC(CO)OC(OC)C1 (stereo not shown) [Mo10]
IC50 [8]: 94 ± 1.5 µM
TEWL after the 2 h treatment (porcine skin [9]): 11.7 ± 0.8 g·m^−2·h^−1
TEWL after the 24 h treatment (porcine skin [9]): 15.6 ± 2.2 g·m^−2·h^−1
TEWL after 20 h (porcine skin [9]): 4.8 ± 0.1 g·m^−2·h^−1
TEWL within 24 h after the enhancers' removal (porcine skin [9]): 4.3 ± 0.7 g·m^−2·h^−1
reversibility of the effect on the skin barrier (porcine skin [9]): reversible
ER, enhancement ratio (porcine skin [4]; permeant DF): 1.43
ER, enhancement ratio (porcine skin [4]; permeant IND): 7.80
ER, enhancement ratio (porcine skin [4]; permeant TH): 9.87
vasCH2, position of asymmetric CH2 stretching vibration (porcine skin [1]): 2921.91 ± 0.40 cm⁻¹
vsCH2, position of symmetric CH2 stretching vibration (porcine skin [1]): 2852.58 ± 0.71 * cm^−1
EIR, electrical impedance ratio (before/after treatment) (porcine skin [10]): 1.66 ± 0.19

CCCCCCCCCCCCN1CC(CO)OC(OC)C1 (stereo not shown) [Mo12]
IC50 [8]: 41 ± 0.8 µM
TEWL after the 2 h treatment (porcine skin [9]): 8.2 ± 0.3 g·m^−2·h^−1
TEWL after the 24 h treatment (porcine skin [9]): 18.5 ± 1.2 g·m^−2·h^−1
TEWL after 20 h (porcine skin [9]): 3.2 ± 0.3 g·m^−2·h^−1
TEWL within 24 h after the enhancers' removal (porcine skin [9]): 9.5 ± 0.1 g·m^−2·h^−1
reversibility of the effect on the skin barrier (porcine skin [9]): reversible
ER, enhancement ratio (porcine skin [4]; permeant DF): 1.81
ER, enhancement ratio (porcine skin [4]; permeant IND): 10.01
ER, enhancement ratio (porcine skin [4]; permeant TH): 14.53
vasCH2, position of asymmetric CH2 stretching vibration (porcine skin [1]): 2921.14 ± 0.61 cm⁻¹
vsCH2, position of symmetric CH2 stretching vibration (porcine skin [1]): 2851.56 ± 0.23 * cm^−1
EIR, electrical impedance ratio (before/after treatment) (porcine skin [10]): 1.60 ± 0.13

CCCCCCCCCCCCCCN1CC(CO)OC(OC)C1 (stereo not shown) [Mo14]
IC50 [8]: 41.5 ± 1.5 µM
TEWL after the 2 h treatment (porcine skin [9]): 9.0 ± 0.4 g·m^−2·h^−1
TEWL after the 24 h treatment (porcine skin [9]): 18.1 ± 0.8 g·m^−2·h^−1
TEWL after 20 h (porcine skin [9]): 4.6 ± 0.7 g·m^−2·h^−1
TEWL within 24 h after the enhancers' removal (porcine skin [9]): 4.7 ± 0.1 g·m^−2·h^−1
reversibility of the effect on the skin barrier (porcine skin [9]): reversible
ER, enhancement ratio (porcine skin [4]; permeant DF): 2.58
ER, enhancement ratio (porcine skin [4]; permeant IND): 9.10
ER, enhancement ratio (porcine skin [4]; permeant TH): 8.67
vasCH2, position of asymmetric CH2 stretching vibration (porcine skin [1]): 2919.48 ± 0.42 cm⁻¹
vsCH2, position of symmetric CH2 stretching vibration (porcine skin [1]): 2850.74 ± 0.14 cm⁻¹
EIR, electrical impedance ratio (before/after treatment) (porcine skin [10]): 1.64 ± 0.14

CCCCCCCCC=CCCCCCCCCN1CC(CO)OC(OC)C1 (stereo not shown) [Mo18/1]
ER, enhancement ratio (porcine skin [4]; permeant DF): 1.94
ER, enhancement ratio (porcine skin [4]; permeant IND): 3.94
ER, enhancement ratio (porcine skin [4]; permeant TH): 5.01
vasCH2, position of asymmetric CH2 stretching vibration (porcine skin [1]): 2920.35 ± 0.36 cm⁻¹
vsCH2, position of symmetric CH2 stretching vibration (porcine skin [1]): 2850.76 ± 0.15 cm⁻¹

CCCCCCCCCCCCCCCCCCN1CC(CO)OC(OC)C1 (stereo not shown) [Mo18]
ER, enhancement ratio (porcine skin [4]; permeant DF): 1.14
ER, enhancement ratio (porcine skin [4]; permeant IND): 1.95
ER, enhancement ratio (porcine skin [4]; permeant TH): 3.06

Cn1c(=O)c2[nH]cnc2n(C)c1=O [TH, theophylline]
logP [11]: −0.02
solubility in PBS ([5]; ref 25): 7650 µg/mL (≈ 42.5 mM)
solubility at 48 h [7]: 20000 ± 620 µg/mL

CCCCCCCCCCCCOC(=O)CCCCCN.CCCCCCCCCCCCOC(=O)CCCCCNC(=O)O [Transkarbam 12]
IC50 ([2]; ref 29): 21 µM

dodecyl amino glucoside
IC50 ([2]; ref 34): 24 µM
